The record followed here is patent US20240308976A1, “COMPOUNDS THAT MEDIATE PROTEIN DEGRADATION AND USES THEREOF” (Monte Rosa Therapeutics, Inc., priority 2021, published 2024).

Assay [1] concerns the target CRBN-DDB1 (Homo sapiens, UniProt Q96SW2). Briefly: Compound binding to CRBN by HTRF assay. The note with it: CRBN-DDB1 2.5 nM, Cy5-Thalidomide 100 nM, 30 min at ambient temperature; read-out: HTRF Class (Cereblon binding, HTRF IC50). How it is done: Example 146: Compound Binding to CRBN by HTRF Assay
Compound activity was monitored in a Homogenous Time-Resolved Fluorescence (HTRF) assay using 1-[5-({2-[2-(2-{[2-(2,6-dioxopiperidin-3-yl)-1,3-dioxo-2,3-dihydro-1H-isoindol-4-yl]oxy}acetamido)ethoxy]ethyl}carbamoyl)pentyl]-3,3-dimethyl-2-[(1E,3E)-5-[(2E)-1,3,3-trimethyl-5-sulfo-2,3-dihydro-1H-indol-2-ylidene]penta-1,3-dien-1-yl]-3H-indol-1-ium-5-sulfonate as a fluorescent probe. Biochemical assays were conducted in Greiner white 384 well HiBase plates (Cat. No 784075-25) in 10 μL total volume. A one pot detection solution of CRBN-DDB1 (2.5 nM), Anti-His Terbium Cryptate Gold (1X, PerkinElmer Cat. #: 61HI2TLB), and Cy5-Thalidomide (100 nM, Tenova Cat.: T52461) was prepared in 20 mM HEPES, 20 mM NaCl, 0.2 mM TCEP, 0.2 mM EDTA, and 0.005% Tween20 was dispensed to each assay plate. Compounds were stored in dry, ambient temperatures at 10 mM. A 10-point, 1:3 dilution series was prepared from 10 mM stock concentrations in Echo-compatible LDV plates. 10 nL of each compound dilution series was dispensed into assays wells using an Echo 650 (Labcyte inc. USA). 10 nL of 10 mM Lenalidomide was transferred into the active-control wells for the assay and 10 nL of DMSO was transferred into the neutral-control wells. The assay was then allowed to incubate for 30 min at ambient temperature after transferring compound. Plate measurements were taken on a Pherastar FSX (BMG Labtech, Germany) using the HTRF Red filter (Ex. 337 nm, em1: 620 nm, em2: 665 nm) (Flashes: 50, Integration time: 60-400 us, Z-height: 10 mm, Ratio-multiplier: 10,000). The HTRF signal was then subsequently normalized to the neutral and active controls. Analysis and IC50 values were derived using KNIME analytics (KNIME Zurich) transformation and fitting within Collaborative Drug Discovery (Collaborative Drug Discovery USA). Ki was derived from the geometric mean of the IC50 values using the Cheng-Prustoff transformation.
(§1) In Table 2, each compound is assigned a class (HTRF class) indicating the ability for Cereblon binding by means of their HTRF IC50 values according to […]: A, B, C or D. According to the code, A represents an IC50 value of ≤100 nM, B represents an IC50 value>100 nM and ≤1000 nM, C represents an IC50 value>1000 nM. IF Class assigns each compound a code indicating the ability for GSPT1 degradation: A, B or C. According to the code, A represents a DC50 value of ≤30 nM, B represents a DC50 value>30 nM and ≤300 nM and C represents a DC50 value of >300 nM.
(In TR-FRET formats the signal depends on donor and acceptor labels being close together.)

Assay [2] has as its target T1, GSPT1 (Homo sapiens, UniProt P15170+Q96SW2).
T1 construct: CAL-51 cells were purchased from DSMZ (cat. Number ACC302); host or cells: CAL-51
Briefly: Immunofluorescence assay for activity to degrade GSPT1 in CAL-51 cells. Type of assay: cell-based. The conditions noted are these: 6 h treatment, read-out: IF Class (GSPT1 degradation, DC50). How it is done:
Example 147: Compound Activity by Immunofluorescence Assay
The representative compounds were tested in an immunofluorescence assay for their activity to degrade GSPT1. CAL-51 cells were purchased from DSMZ (cat. Number ACC302), sub-cultured in 90% Dulbecco's MEM (4.5 g/L glucose, Gibco 11965)+10% heat inactivated FBS (BioConcept, 2-01F136I) and incubated at 37° C., 5% CO2. For the assay imaging microtiter plate Cell Carrier 96 Ultra (Perkin Elmer 6055302) were pre-coated with Fibronectin (Sigma F085, 30 μL at 0.2 μg/mL) in PBS (100 μL, Gibco 14190) for 45 min at room temperature, rinsed with PBS and CAL-51 cells (30K cells/well) were plated and let to adhere overnight. Cells were treated with compounds typically using a serial dilution ranging from 30 μM to 0.1 nM for 6 h. Compounds were stored at 10 mM DMSO stocks. Vehicle (DMSO), positive (CC-885, 10 μM) and rescue controls (positive control plus 0.2 μM bortezomib) were also included at this stage. Cells were subsequently rinsed with PBS and fixed in 10% Formalin solution (50 μL, Sigma HT5011)) for 20 mins at room temperature. Following three consecutive PBS washes (100 μL), cells were permeabilized in 0.1% Triton X-100 in PBS (Sigma 93443, 50 μL) for 15 min. at room temperature. Following three further PBS washes, 50 μL blocking buffer (1% BSA, Sigma A4503, in PBS) was added for 45 min for signal-to noise reduction. Primary antibody (human GSPT1, Sigma HPA052488) was diluted in blocking buffer (dil.1/300, 35 μL/well) and incubated with the cells overnight at 4° C. After three PBS washes, Alexa-fluor 488 coupled secondary antibodies (Invitrogen, A32731, dil. 1/1000), Alexa-fluor 647-Phalloidin (Invitrogen, A22287, dil. 1/200) and DAPI (Thermo, #62248, dil. 1/1000) were diluted in blocking buffer and incubated with the samples for 2 h at room temperature. After three final PBS washes, samples were conserved in 100 μL PBS in the dark, until measurement. Image acquisition was performed on the Operetta High-Content Imager (Perkin-Elmer). Fluorescence intensity of […] (GSPT1), Alexa-Fluor 647 (Actin) and DAPI (Nucleus) were measured. For the determination of GSPT1 DC50 values, a custom algorithm implemented in the PerkinElmer image analysis software Harmony-Acapella® was developed. After user-defined setting of adjustment parameters, the analysis was run identically without human intervention for all image fields. DAPI staining of the nuclei was used to determine the location of cells using standard nuclei detection modules. Segmentation artifacts were removed by threshold-based filters for area, roundness and intensity. The outline of the cells was determined analogously from the sum of the normalized, smoothed DAPI and Actin channel, starting from each nucleus. The Alexa-Fluor 488 (GSPT1) signal intensity in each cell was finally measured, in order to obtain a Mean intensity per cell. GSPT1 degradation (DC50) was calculated after normalization to controls and data import in CDD vault Database, using non-linear regression.
as §1

T1 sequence (P15170 whole entry): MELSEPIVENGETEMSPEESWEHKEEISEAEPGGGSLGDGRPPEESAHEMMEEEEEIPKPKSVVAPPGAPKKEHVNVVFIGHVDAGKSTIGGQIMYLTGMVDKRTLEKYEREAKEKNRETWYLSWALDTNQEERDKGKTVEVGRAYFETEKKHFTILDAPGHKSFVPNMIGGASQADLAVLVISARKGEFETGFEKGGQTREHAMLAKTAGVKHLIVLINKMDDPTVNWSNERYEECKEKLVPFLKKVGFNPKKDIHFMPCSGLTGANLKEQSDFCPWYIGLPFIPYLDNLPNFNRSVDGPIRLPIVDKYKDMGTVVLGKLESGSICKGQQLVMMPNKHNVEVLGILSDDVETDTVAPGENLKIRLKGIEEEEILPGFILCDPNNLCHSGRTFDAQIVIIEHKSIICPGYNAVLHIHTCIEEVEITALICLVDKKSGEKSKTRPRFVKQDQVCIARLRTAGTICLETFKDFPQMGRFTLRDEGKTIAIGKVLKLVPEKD
T1 sequence (Q96SW2 whole entry): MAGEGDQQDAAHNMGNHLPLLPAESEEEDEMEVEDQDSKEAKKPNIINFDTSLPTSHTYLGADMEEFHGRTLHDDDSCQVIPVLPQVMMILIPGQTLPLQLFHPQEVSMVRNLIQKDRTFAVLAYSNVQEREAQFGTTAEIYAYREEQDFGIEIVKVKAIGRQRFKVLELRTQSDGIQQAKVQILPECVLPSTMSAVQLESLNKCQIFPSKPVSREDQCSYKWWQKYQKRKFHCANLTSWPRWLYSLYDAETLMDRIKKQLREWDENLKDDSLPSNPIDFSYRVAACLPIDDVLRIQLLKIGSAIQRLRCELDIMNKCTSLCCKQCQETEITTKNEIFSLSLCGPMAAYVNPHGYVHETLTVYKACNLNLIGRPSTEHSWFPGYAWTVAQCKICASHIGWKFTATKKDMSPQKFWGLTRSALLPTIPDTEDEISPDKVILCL
T1 sequence (Q16531 2-1140 partner limits assumed): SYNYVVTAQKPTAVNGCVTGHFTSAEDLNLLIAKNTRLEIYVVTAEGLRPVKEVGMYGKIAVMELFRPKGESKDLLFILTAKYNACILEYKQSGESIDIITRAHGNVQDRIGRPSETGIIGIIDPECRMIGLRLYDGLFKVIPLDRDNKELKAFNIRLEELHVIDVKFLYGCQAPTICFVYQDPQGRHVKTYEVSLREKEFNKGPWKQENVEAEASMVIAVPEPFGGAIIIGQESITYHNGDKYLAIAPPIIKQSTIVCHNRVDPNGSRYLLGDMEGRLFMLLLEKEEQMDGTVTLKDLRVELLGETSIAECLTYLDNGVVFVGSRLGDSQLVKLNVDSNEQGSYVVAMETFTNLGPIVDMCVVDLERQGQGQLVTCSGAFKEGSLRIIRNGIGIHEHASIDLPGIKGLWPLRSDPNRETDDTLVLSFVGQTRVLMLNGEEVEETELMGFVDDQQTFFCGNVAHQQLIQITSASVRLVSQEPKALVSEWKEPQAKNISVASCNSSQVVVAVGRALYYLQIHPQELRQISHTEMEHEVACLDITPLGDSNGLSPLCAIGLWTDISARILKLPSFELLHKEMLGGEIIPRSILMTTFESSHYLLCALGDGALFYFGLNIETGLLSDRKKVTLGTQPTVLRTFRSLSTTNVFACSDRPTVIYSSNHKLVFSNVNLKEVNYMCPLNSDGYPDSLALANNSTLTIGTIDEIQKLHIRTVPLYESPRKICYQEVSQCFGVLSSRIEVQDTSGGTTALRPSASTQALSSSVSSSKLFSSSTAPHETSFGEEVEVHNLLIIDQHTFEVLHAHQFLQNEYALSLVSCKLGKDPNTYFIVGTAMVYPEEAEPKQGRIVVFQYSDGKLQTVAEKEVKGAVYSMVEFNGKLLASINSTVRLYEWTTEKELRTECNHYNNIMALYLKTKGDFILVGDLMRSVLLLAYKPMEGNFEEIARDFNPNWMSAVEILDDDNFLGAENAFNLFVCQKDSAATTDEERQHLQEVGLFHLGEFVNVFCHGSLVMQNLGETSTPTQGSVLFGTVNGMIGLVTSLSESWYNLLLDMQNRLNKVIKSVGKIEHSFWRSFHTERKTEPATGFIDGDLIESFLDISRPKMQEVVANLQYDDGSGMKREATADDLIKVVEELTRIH
CRBN-DDB1, sequence (Q96SW2 whole entry): as the sequence (Q96SW2 whole entry) above
CRBN-DDB1, sequence (Q16531 whole entry partner): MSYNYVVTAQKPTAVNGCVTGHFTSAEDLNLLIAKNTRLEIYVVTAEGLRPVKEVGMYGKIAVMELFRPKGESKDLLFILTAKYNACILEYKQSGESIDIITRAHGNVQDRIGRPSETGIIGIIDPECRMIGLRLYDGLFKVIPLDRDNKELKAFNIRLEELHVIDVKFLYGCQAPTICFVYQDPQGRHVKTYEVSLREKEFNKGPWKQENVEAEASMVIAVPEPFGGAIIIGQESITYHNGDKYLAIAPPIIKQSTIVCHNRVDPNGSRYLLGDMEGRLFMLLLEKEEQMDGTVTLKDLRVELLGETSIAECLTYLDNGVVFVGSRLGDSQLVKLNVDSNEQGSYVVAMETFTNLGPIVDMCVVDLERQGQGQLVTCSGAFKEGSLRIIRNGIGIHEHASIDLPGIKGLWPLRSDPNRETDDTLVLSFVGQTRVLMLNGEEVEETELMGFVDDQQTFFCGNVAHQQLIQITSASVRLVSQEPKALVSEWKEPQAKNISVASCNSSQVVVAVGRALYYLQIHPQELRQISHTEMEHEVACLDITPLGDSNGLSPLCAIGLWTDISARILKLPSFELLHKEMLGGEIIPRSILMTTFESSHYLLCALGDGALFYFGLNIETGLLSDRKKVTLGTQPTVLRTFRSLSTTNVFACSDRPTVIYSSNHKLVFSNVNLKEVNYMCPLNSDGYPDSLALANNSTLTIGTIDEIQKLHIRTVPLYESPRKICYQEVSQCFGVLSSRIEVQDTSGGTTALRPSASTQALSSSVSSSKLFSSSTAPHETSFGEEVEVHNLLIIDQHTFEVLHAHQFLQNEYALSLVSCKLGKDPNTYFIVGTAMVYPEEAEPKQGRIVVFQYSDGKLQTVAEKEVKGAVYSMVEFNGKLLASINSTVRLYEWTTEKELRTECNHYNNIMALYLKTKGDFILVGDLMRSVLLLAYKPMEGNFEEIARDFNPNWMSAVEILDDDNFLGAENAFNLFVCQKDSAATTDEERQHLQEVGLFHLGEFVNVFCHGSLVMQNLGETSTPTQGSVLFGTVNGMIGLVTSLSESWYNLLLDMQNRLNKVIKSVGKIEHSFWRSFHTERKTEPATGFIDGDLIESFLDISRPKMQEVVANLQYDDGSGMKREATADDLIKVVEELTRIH

On to `Cc1ccc(NC(=O)NC2CN(c3cc(F)c(C4CCC(=O)NC4=O)c(F)c3)C2)cc1Cl` (stereo not drawn) [Compound 1, 1-(3-chloro-4-methylphenyl)-3-(1-(4-(2,6-dioxopiperidin-3-yl)-3,5-difluorophenyl)azetidin-3-yl)urea], for which, in assay [1], the IC50 (usually the point on the concentration scale where inhibition reaches its midpoint) was 0.1 to 1 µM. Moreover, the DC50 – broadly, the concentration giving 50% degradation – in assay [2] is at most 0.03 µM.
Turning to `Cc1ccc(NC(=O)OC2CN(c3cc(F)c(C4CCC(=O)NC4=O)c(F)c3)C2)cc1Cl` (stereo not drawn) [Compound 2, 1-(4-(2,6-dioxopiperidin-3-yl)-3,5-difluorophenyl)azetidin-3-yl(3-chloro-4-methylphenyl) carbamate], the IC50 in assay [1] lay in the range of 0.1 to 1 µM. The DC50 in assay [2] was at most 0.03 µM.
Taken in the same sequence, the figures for `O=C1CCC(c2c(F)cc(N3CC(OC(=O)Nc4cccc(OC(F)(F)F)c4)C3)cc2F)C(=O)N1` (stereo not drawn) [Compound 3, 1-(4-(2,6-dioxopiperidin-3-yl)-3,5-difluorophenyl)azetidin-3-yl(3-(trifluoromethoxy)phenyl) carbamate] were 0.1 to 1 µM and at most 0.03 µM.
With `Cc1cc(C)cc(NC(=O)OC2CN(c3cc(F)c(C4CCC(=O)NC4=O)c(F)c3)C2)c1` (stereo not drawn) [Compound 4, 1-(4-(2,6-dioxopiperidin-3-yl)-3,5-difluorophenyl)azetidin-3-yl (3,5-dimethyl phenyl)carbamate], in assay [1], the IC50 was 0.1 to 1 µM. The half-maximal degradation concentration (DC50) in assay [2] is 0.03 to 0.3 µM.
For `Cc1c(Cl)cc(NC(=O)OC2CN(c3cc(F)c(C4CCC(=O)NC4=O)c(F)c3)C2)cc1CN1CCOCC1` (stereo not drawn) [Compound 5, 1-(4-(2,6-dioxopiperidin-3-yl)-3,5-difluorophenyl) azetidin-3-yl(3-chloro-4-methyl-5-(morpholinomethyl)phenyl)carbamate] the same measures were at most 0.1 µM and 0.03 to 0.3 µM.
For `Cc1ccc(NC(=O)OC2CN(c3cc(F)c(C4CCC(=O)NC4=O)c(F)c3)C2)cc1OC(F)F` (stereo not drawn) [Compound 6, 1-(4-(2,6-dioxopiperidin-3-yl)-3,5-difluoropheny) azetidin-3-yl(3-(difluoromethoxy)-4-methylphenyl) carbamate] the same measures were 0.1 to 1 µM and 0.03 to 0.3 µM.
Take `Cc1ccc(NC(=O)NC2CN(c3ccc(C4CCC(=O)NC4=O)c(F)c3)C2)cc1Cl` (stereo not drawn) [Compound 7, 1-(3-chloro-4-methylphenyl)-3-(1-(4-(2,6-dioxopiperidin-3-yl)-3-fluorophenyl)azetidin-3-yl)urea]: in assay [1], the IC50 was in the range of 0.1 to 1 µM. Moreover, the DC50 in assay [2] was in the range of 0.03 to 0.3 µM.
`Cc1ccc(NC(=O)OC2CN(c3ccc(C4CCC(=O)NC4=O)c(F)c3)C2)cc1Cl` (stereo not drawn) [Compound 8, 1-(4-(2,6-dioxopiperidin-3-yl)-3-fluorophenyl) azetidin-3-yl(3-chloro-4-methylphenyl)carbamate]: the IC50 in assay [1] was in the range of 0.1 to 1 µM. Besides, the DC50 in assay [2] is at most 0.03 µM.
As to `Cc1c(Cl)cc(NC(=O)NC2CN(c3cc(F)c(C4CCC(=O)NC4=O)c(F)c3)C2)cc1CN1CC2CC1CO2` (stereo not drawn) [Compound 9, 1-(3-(2-oxa-5-azabicyclo[2.2.1]heptan-5-ylmethyl)-5-chloro-4-methylphenyl)-3-(1-(4-(2,6-dioxopiperidin-3-yl)-3,5-difluorophenyl)azetidin-3-yl)urea], the half-inhibitory concentration (IC50) in assay [1] was at most 0.1 µM. In addition, in assay [2], the DC50 is at most 0.03 µM.
For `C[C@@H]1CCCN1c1ccc(NC(=O)OC2CN(c3cc(F)c(C4CCC(=O)NC4=O)c(F)c3)C2)cn1` (stereo partly drawn) [Compound 10, 1-(4-(2,6-dioxopiperidin-3-yl)-3,5-difluorophenyl)azetidin-3-yl (6-((R)-2-methylpyrrolidin-1-yl)pyridin-3-yl)carbamate] the same measures were at most 0.1 µM and at most 0.03 µM.
For `Cc1cc(C)cc(NC(=O)NC2CN(c3cc(F)c(C4CCC(=O)NC4=O)c(F)c3)C2)c1` (stereo not drawn) [Compound 11, 1-(3,5-dimethylphenyl)-3-(1-(4-(2,6-dioxopiperidin-3-yl)-3,5-difluorophenyl)azetidin-3-yl)urea] the same measures were 0.1 to 1 µM and at most 0.03 µM.
Taken in the same sequence, the figures for `CC(C)(C)c1ccc(NC(=O)NC2CN(c3cc(F)c(C4CCC(=O)NC4=O)c(F)c3)C2)cn1` (stereo not drawn) [Compound 12, 1-(6-(tert-butyl)pyridin-3-yl)-3-(1-(4-(2,6-dioxopiperidin-3-yl)-3,5-difluorophenyl)azetidin-3-yl)urea] were at most 0.1 µM and at most 0.03 µM.
On to `Cc1c(Cl)cc(NC(=O)NC2CN(c3cc(F)c(C4CCC(=O)NC4=O)c(F)c3)C2)cc1OCCN1CCOCC1` (stereo not drawn) [Compound 13, 1-(3-chloro-4-methyl-5-(2-morpholinoethoxy)phenyl)-3-(1-(4-(2,6-dioxopiperidin-3-yl)-3,5-difluorophenyl)azetidin-3-yl)urea], for which the IC50 in assay [1] is at most 0.1 µM. For the same compound, the half-maximal degradation concentration (DC50) in assay [2] is at most 0.03 µM.
Consider `CO[C@H]1CC[C@@H](NC(=O)OC2CN(c3cc(F)c(C4CCC(=O)NC4=O)c(F)c3)C2)CC1` (stereo partly drawn) [Compound 119, 1-(4-(2,6-dioxopiperidin-3-yl)-3,5-difluorophenyl) azetidin-3-yl ((1S,4S)-4-methoxycyclohexyl) carbamate], for which the half-maximal degradation concentration (DC50) in assay [2] is above 0.3 µM.
For `CC(C)N1CCC(NC(=O)NC2CN(c3cc(F)c(C4CCC(=O)NC4=O)c(F)c3)C2)C1` (stereo not drawn) [Compound 120, 1-(1-(4-(2,6-dioxopiperidin-3-yl)-3,5-difluorophenyl)azetidin-3-yl)-3-(1-isopropylpyrrolidin-3-yl) urea], the DC50 in assay [2] is above 0.3 µM.
Same read-out and setting: in the case of `CN1CCC(NC(=O)NC2CN(c3cc(F)c(C4CCC(=O)NC4=O)c(F)c3)C2)C1` (stereo not drawn) [Compound 121, 1-(1-(4-(2,6-dioxopiperidin-3-yl)-3,5-difluorophenyl)azetidin-3-yl)-3-(1-methylpyrrolidin-3-yl)urea] it was above 0.3 µM; in that of `CCC(C)CNC(=O)OC1CN(c2cc(F)c(C3CCC(=O)NC3=O)c(F)c2)C1` (stereo not drawn) [Compound 122, 1-(4-(2,6-dioxopiperidin-3-yl)-3,5-difluorophenyl) azetidin-3-yl (2-methylbutyl)carbamate], 0.03 to 0.3 µM.
